Several values for one entry are separate records, joined by “and”; a condition that tells them apart may be missing. Identical values can stand only once.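 Growth conditions: 96-well plates. Treatment: test compound, 48 hours, 5 concentrations. Analysis: linear interpolation between bracketing concentrations; unreached endpoints set to highest concentration. Abbreviation: GI50, concentration required for 50% inhibition of growth. The concentration for full growth arrest is given as TGI.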
Assays:
Test in all cases: NCI anticancer screen, dose series, 48 h
786-0 renal = tested on: 786-0 renal
A498 renal = tested on: A498 renal
CAKI-1 renal = tested on: CAKI-1 renal
IGROV1 ovarian = tested on: IGROV1 ovarian
M14 melanoma = tested on: M14 melanoma
MDA-MB-231 breast = tested on: MDA-MB-231 breast
NCI-H522 lung = tested on: NCI-H522 lung
OVCAR-3 ovarian = tested on: OVCAR-3 ovarian
SNB-19 CNS = tested on: SNB-19 CNS
SR leukemia = tested on: SR leukemia

| SMILES | GI50 (786-0 renal) | TGI (786-0 renal) | GI50 (A498 renal) | TGI (A498 renal) | GI50 (CAKI-1 renal) | TGI (CAKI-1 renal) | GI50 (IGROV1 ovarian) | TGI (IGROV1 ovarian) | GI50 (M14 melanoma) | TGI (M14 melanoma) | GI50 (MDA-MB-231 breast) | TGI (MDA-MB-231 breast) [µM] | GI50 (NCI-H522 lung) | TGI (NCI-H522 lung) | GI50 (OVCAR-3 ovarian) | TGI (OVCAR-3 ovarian) | GI50 (SNB-19 CNS) | TGI (SNB-19 CNS) | GI50 (SR leukemia) | TGI (SR leukemia) |
| --- | --- | --- | --- | --- | --- | --- | --- | --- | --- | --- | --- | --- | --- | --- | --- | --- | --- | --- | --- | --- |
| Fc1ccc2nc(-c3nc(-c4ccccc4)n4ccccc34)[nH]c2c1 | 2.23 µM | 4.23 µM | 2.08 µM | 6.46 µM | 3.38 µM | 15.1 µM | 1.95 µM | 5.3 µM | 3.83 µM | 14.1 µM | 2.45 µM | 10.7 | 2.43 µM | 5.6 µM | 4.29 µM | 15.1 µM | 2.37 µM | 6.22 µM | 4.45 µM | > 100 µM |
| C/C(=N\NC(=S)N1CCN(c2ccccn2)CC1)c1ncccn1 | 0.0742 µM | 15.7 µM | – | 6.19 µM and 16.2 µM | 0.447 µM | 16 µM | < 0.0121 µM | 4.31 µM and 16.3 µM | 0.0938 µM | 6.06 µM and 2.61 µM | – | 19.4 | 0.0859 µM | 1.45 µM and 2.06 µM | 0.213 µM | 7.5 µM and 15.3 µM | – | 19 µM | 0.0622 µM | 12.3 µM |
| COc1ccc(-c2c3c(N)c4c(nc3nc3c2c(C)nn3-c2ccccc2)CCCC4)cc1 | 4.55 µM | 17.5 µM | 11.9 µM | 27.3 µM | 3.88 µM | 15.9 µM | 4.26 µM | 18.6 µM | 3.74 µM | 13 µM | 4.15 µM | 16.9 | 2.91 µM | 12.2 µM | 4.17 µM | 15.3 µM | 10.8 µM | 26.8 µM | 1.84 µM | 5.01 µM |
| COc1ccc(/C=N\Nc2nc(SCC(C)C)nc(-c3ccc(OC)cc3)c2C#N)cc1 | 1.86 µM | 9.33 µM | 2.49 µM | 7.14 µM | 1.55 µM | 3.96 µM | 1.92 µM | 20 µM | 13 µM | 92.2 µM | 6.66 µM | 25 | 11.3 µM | 63.2 µM | 6.71 µM | 21.1 µM | 6.81 µM | 33.3 µM | 8.69 µM | 96 µM |
| N#Cc1c(NC(=O)c2ccccc2F)sc2c1CCCC2 | > 25 µM | > 25 µM | > 16.7 µM | > 25 µM | > 19.4 µM | > 25 µM | > 25 µM | > 25 µM | > 25 µM | > 25 µM | > 23.5 µM | > 25 | > 12.8 µM | > 25 µM | > 25 µM | > 25 µM | > 25 µM | > 25 µM | > 25 µM | > 25 µM |
| COc1ccc(-c2[nH]c3ccccc3c2/C=C(\C#N)S(=O)(=O)c2ccccc2)cc1 | 0.844 µM | > 38.3 µM | 1.14 µM | > 28.6 µM | 0.975 µM | > 31.6 µM | 3.44 µM | – | 0.383 µM | 14.4 µM | 0.58 µM | > 60.8 | 1.78 µM | – | 0.241 µM | 0.673 µM | 0.844 µM | > 100 µM | 0.344 µM | 4.9 µM |
| Nc1nc(C(=O)O)c(N=Nc2ccccc2)c(=O)[nH]1 | – | > 100 µM | – | > 100 µM | – | > 100 µM | – | > 100 µM | – | > 100 µM | – | > 100 | – | > 100 µM | – | > 100 µM | – | > 100 µM | – | > 100 µM |
| N#CCNC(=O)c1ccc(-c2ccnc(Nc3ccc(N4CCOCC4)cc3)n2)cc1 | 1.56 µM and 1.26 µM | > 10 µM and 13.1 µM | 2.35 µM and 1.91 µM | 8.73 µM and 7.66 µM | 0.513 µM and 0.273 µM | 3.72 µM and 3.03 µM | 1.69 µM and 1.24 µM | > 10 µM and 20.3 µM | 4.47 µM and 4.29 µM | > 100 µM | 2.26 µM and 2.19 µM | > 100 | 1.22 µM and 0.713 µM | > 10 µM and 21.5 µM | 7.77 µM and 5.78 µM | > 10 µM and 46.6 µM | 7.23 µM and 10.2 µM | > 10 µM and 78.4 µM | 0.498 µM and 0.458 µM | 3.88 µM and 5.47 µM |
| COC1=C(OC)[C@]2(OC)c3c(O)c(OC)c4c(c3O[C@@]23O[C@@H](c2ccccc2)CC=C3C1=O)[C@@H](OC)C[C@H](c1ccccc1)O4 | 0.292 µM | 0.801 µM | 1.51 µM | 2.94 µM | 0.51 µM | 1.88 µM | 0.374 µM | 1.41 µM | 0.516 µM | 1.86 µM | 0.445 µM | 1.7 | 0.247 µM | 0.762 µM | 0.255 µM | 0.72 µM | 1.81 µM | 3.51 µM | 0.0317 µM | 0.133 µM |
| Clc1nc(Cl)c2ncn(CCOCCn3cnc4c(Cl)nc(Cl)nc43)c2n1 | 0.325 µM | 0.935 µM | 1.72 µM | 3.2 µM | 0.197 µM | 0.453 µM | 0.207 µM | 0.408 µM | 0.287 µM | 0.817 µM | 0.187 µM | 0.355 | 0.684 µM | 2.22 µM | 0.199 µM | 0.346 µM | 0.448 µM | 0.968 µM | 0.241 µM | 54.4 µM |
| S=C(NCc1ccc2c(c1)OCO2)N1CCN(c2ncnc3c2oc2ccccc23)CC1 | > 100 µM | > 100 µM | 4.42 µM | > 100 µM | 5.93 µM | > 100 µM | > 100 µM | > 100 µM | > 71.4 µM | > 100 µM | > 100 µM | > 100 | 24 µM | > 100 µM | 25.2 µM | > 100 µM | > 100 µM | > 100 µM | 3.7 µM | > 100 µM |
| COc1c(CC=C(C)C)c(O)c(C(CC(C)C)c2c(O)c(CC=C(C)C)c(O)c(C(C)=O)c2O)c(O)c1C(C)=O (stereo not given) | – | 11.9 µM | – | 1.24 µM | – | 11.7 µM | – | 13.4 µM | – | 5.72 µM | – | 7.66 | – | 1.48 µM | – | 12.5 µM | – | 15.2 µM | – | 3.8 µM |
| Cc1cc(O)c2c3c(ccc2c1)C(=O)c1c(O)cccc1C3=O | – | > 100 µM | – | > 100 µM | – | > 100 µM | – | > 20.3 µM | – | > 26.2 µM | – | > 100 | – | > 32.3 µM | – | 3.45 µM | – | > 100 µM | – | 26.5 µM |
| c1ccc(CN2COc3c(ccc4c5c(ccc34)CN(Cc3ccccc3)CO5)C2)cc1 | – | > 100 µM | – | > 100 µM | – | > 100 µM | – | > 100 µM | – | > 100 µM | – | > 100 | – | > 100 µM | – | > 100 µM | – | > 100 µM | – | > 100 µM |
